Key:
[1] = tested on: NRF2; experiment: NRF2 nuclear localization, immunocytochemistry in AREc32 cells; format: cell-based; details: 30 μM, 2 h, vs basal
Procedure: AREc32 cells were plated in 24 multi-well plates on poly-D-Lysine-coated crystal slides (4 × 10^4 cells/well). Cells were treated with compounds 7a or 7b (30 µM) for 2 h and fixed by treatment with 4% paraformaldehyde solution in PBS (10 min). After 3 washings with PBS every 5 min, cells were permeabilized with 0.1% Triton X-100 solution for five min, washed 3 times with PBS (5 min) and incubated overnight with primary antibody anti-NRF2 (1:50, A-10, sc-365949, Santa Cruz Biotechnology, Dallas, TX, USA). Thereafter, cells were washed with PBS (3×, 5 min) and incubated with secondary antibody (1:500, 1 h). Finally, nuclei were stained with 5 µg/mL PBS solution of Hoechst 33342 (Invitrogen, Madrid, Spain) during the second wash. Finally, slides were mounted on coverslips (glycerol–PBS (1:1 v/v)), and images were obtained in a confocal microscope (TCS SPE, Leica, Wetzlar, Germany).
To obtain deeper insight into the mechanism of action of compounds 7, we evaluated their potential capacity to induce NRF2 nuclear localization and the activation of the phase II response. As previously described, NRF2 is sequestered at the cytoplasm by its repressor protein KEAP1, which mediates its proteasomal degradation. […] Thus, we firstly evaluated the capacity of compounds 7a and 7b to induce NRF2 nuclear localization as part of their mechanism of action. […]

[2] = tested on: HO-1 and GCLc; experiment: Western blot of NRF2-dependent proteins HO-1 and GCLc in AREc32 cells; format: cell-based; details: 30 μM, 24 h, western blot vs basal
Procedure: AREc32 cells were seeded in 6 multi-well plates (1 × 10^6 cells/well) for 24 h and treated with compounds 7a and 7b (30 µM) and culture medium (basal) for 24 h. Thereafter, cells were collected and lysed in ice-cold lysis buffer (10% glycerol, 137 mM NaCl, 1% Nonidet P-40, 20 mM Tris HCl pH 7.5, 1 mM phenylmethylsulfonyl fluoride, 20 mM NaF, 1 mM sodium pyrophosphate, 1 μg/mL leupeptin and 1 mM Na3VO4). Then proteins (30 μg) were resolved by gel electrophoresis on sodium dodecyl sulfate–polyacrylamide (10% and 12%) and transferred to Immobilion-P membranes (MilliporeSigma, Madrid, Spain). The membranes were incubated with anti-GCLc (1:1000, Ab41463 (Abcam, Cambridge, MA, USA), anti-HO-1 (1:1000, ab68477, Abcam) or anti-Actin (1:100,000, A3854, Merck, Madrid, Spain). Peroxidase-conjugated secondary antibodies (1:10,000 and antirabbit: SC-2357, Santa Cruz Biotechnology, Dallas, TX, USA) were employed to detect the proteins by enhanced chemiluminescence. Band intensities corresponding to immunoblot detection of protein samples were quantitated with Fiji software.
Once in the nucleus, NRF2 binds to small MafG protein, and the resulting complex binds to the ARE sequences at the DNA to initiate the expression of phase II antioxidant proteins. HO-1 and GCLc are two prominent examples of antioxidant enzymes regulated by the NRF2-ARE pathway related to the heme group processing and the synthesis of glutathione, the major antioxidant defense inside the cells. […] Thereafter, protein expression was evaluated.

For O=C1CN(CCOC(=O)CCCC[C@H]2CCSS2)[C@H](c2ccccc2Cl)c2cc(Cl)ccc2N1 [(S,S)-7a, 2-((S)-7-Chloro-5-(2-chlorophenyl)-2-oxo-1,2,3,5-tetrahydro-4H-benzo[e][1,4]diazepin-4-yl)ethyl 5-((S)-1,2-dithiolan-3-yl)pentanoate], the NRF2 nuclear localization [1] was “predominantly nuclear localization of NRF2”, the GCLc expression [2] was “significantly increased” and the HO-1 expression [2] was “significantly increased”.
In the case of O=C1CN(CCOC(=O)CCCC[C@H]2CCSS2)[C@@H](c2ccccc2Cl)c2cc(Cl)ccc2N1 [(S,R)-7b, 2-((R)-7-Chloro-5-(2-chlorophenyl)-2-oxo-1,2,3,5-tetrahydro-4H-benzo[e][1,4]diazepin-4-yl)ethyl 5-((S)-1,2-dithiolan-3-yl)pentanoate], the NRF2 nuclear localization [1] is reported as “predominantly nuclear localization of NRF2”, the GCLc expression [2] is reported as “significantly increased” and the HO-1 expression [2] is reported as “significantly increased”.

— PMC8772772, “Enantioselective Synthesis and Pharmacological Evaluation of Aza-CGP37157–Lipoic Acid Hybrids for the Treatment of Alzheimer’s Disease” (Antioxidants, 2022)
